The results in this text go back to ChEMBL document CHEMBL4396932, “Rasagiline derivatives combined with histamine H3 receptor properties” (Bioorg Med Chem Lett, 2019).

Some results are limits rather than exact numbers.

The target in data set [1] is Cholinesterase (Equus caballus) (UniProt P81908). In words: Inhibition of equine serum BuChE at 10 uM using acetylthiocholine iodide as substrate preincubated for 30 mins followed by substrate addition and measured every 40 secs for 30 mins by Ellman's method relative to control.
Data set [2] has as its target Acetylcholinesterase (Electrophorus electricus) (UniProt O42275). In words: Inhibition of electric eel AChE at 10 uM using acetylthiocholine iodide as substrate preincubated for 30 mins followed by substrate addition and measured every 40 secs for 30 mins by Ellman's method relative to control. Background: DTNB colorimetry detects thiols as they appear.
Data set [3] has as its target T1, Amine oxidase [flavin-containing] A (Homo sapiens, UniProt P21397).
T1 sequence (P21397 whole entry): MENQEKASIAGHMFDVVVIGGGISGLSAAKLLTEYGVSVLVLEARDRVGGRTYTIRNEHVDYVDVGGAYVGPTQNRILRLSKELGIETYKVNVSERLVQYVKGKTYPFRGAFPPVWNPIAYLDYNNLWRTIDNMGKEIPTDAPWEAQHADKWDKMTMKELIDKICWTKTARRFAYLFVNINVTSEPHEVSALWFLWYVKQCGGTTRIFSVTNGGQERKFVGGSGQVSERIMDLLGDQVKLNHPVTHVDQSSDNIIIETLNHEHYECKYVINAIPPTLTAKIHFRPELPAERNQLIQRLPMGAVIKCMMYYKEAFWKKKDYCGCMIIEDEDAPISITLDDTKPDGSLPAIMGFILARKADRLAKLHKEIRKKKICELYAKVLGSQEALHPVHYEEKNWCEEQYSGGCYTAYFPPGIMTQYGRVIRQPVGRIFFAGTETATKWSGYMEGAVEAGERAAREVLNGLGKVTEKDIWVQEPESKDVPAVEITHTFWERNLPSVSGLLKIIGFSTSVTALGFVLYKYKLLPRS
Nature of the data set: Inhibition of human recombinant MAO-A using kynuramine as substrate preincubated for 60 mins followed by substrate addition by discontinuous fluorimetric analysis.

For data set [4], the species on record is Homo sapiens. Nature of the data set: Selectivity index, ratio of IC50 for human recombinant MAO-A to IC50 for human recombinant MAO-B using kynuramine as substrate.
Data set [5] has as its target T2, Amine oxidase [flavin-containing] B (Homo sapiens, UniProt P27338).
T2 sequence (P27338 whole entry): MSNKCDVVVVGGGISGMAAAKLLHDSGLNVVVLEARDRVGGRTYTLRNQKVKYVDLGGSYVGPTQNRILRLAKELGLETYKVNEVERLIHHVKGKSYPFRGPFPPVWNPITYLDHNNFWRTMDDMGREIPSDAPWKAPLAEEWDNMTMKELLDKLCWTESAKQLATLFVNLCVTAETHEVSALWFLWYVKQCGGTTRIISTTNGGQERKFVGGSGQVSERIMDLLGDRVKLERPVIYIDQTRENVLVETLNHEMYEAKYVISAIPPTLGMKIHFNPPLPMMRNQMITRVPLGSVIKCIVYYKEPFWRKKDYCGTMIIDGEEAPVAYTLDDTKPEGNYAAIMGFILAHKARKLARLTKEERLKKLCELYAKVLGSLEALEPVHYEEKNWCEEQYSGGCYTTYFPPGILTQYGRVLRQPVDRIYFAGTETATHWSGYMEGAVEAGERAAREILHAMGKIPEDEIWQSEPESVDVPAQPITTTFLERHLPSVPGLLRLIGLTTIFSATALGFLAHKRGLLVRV
Nature of the data set: Inhibition of human recombinant MAO-B using kynuramine as substrate preincubated for 60 mins followed by substrate addition by discontinuous fluorimetric analysis.

A short description of data set [6]: Cytotoxicity against human SH-SY5Y cells assessed as cell viability at 10 uM measured after 24 hrs by resazurin dye based fluorescence assay relative to control. The following applies: read-out: Activity. (In general: Alamar Blue is a resazurin reagent that responds to reducing activity.)
In data set [7] the target is T1, Amine oxidase [flavin-containing] A. Nature of the data set: Inhibition of human recombinant MAO-A using kynuramine as substrate by discontinuous fluorimetric analysis.
Data set [8] in a line: Cytotoxicity against human SH-SY5Y cells assessed as cell viability at 1 uM measured after 24 hrs by resazurin dye based fluorescence assay relative to control. The following applies: read-out: Activity.
The species named for data set [9] is Homo sapiens. Nature of the data set: Selectivity index, ratio of IC50 for human recombinant MAO-A using kynuramine as substrate preincubated for 60 mins followed by substrate addition to IC50 for human recombinant MAO-B using kynuramine as substrate preincubated for 60 mins followed by substrate addition.
For the next data set, the target named is Histamine H3 receptor (Homo sapiens, UniProt Q9Y5N1). In words: Displacement of [3H] N-alpha methylhistamine from human recombinant H3 receptor expressed in HEK293 cells incubated for 90 min. The class given is cell-based. In general terms: In a radioligand displacement assay an active substance lowers the binding of a labelled ligand.
Data set [10] concerns the target T2, Amine oxidase [flavin-containing] B. Nature of the data set: Inhibition of human recombinant MAO-B using kynuramine as substrate by discontinuous fluorimetric analysis.
Data set [11] in a line: Cytotoxicity against human SH-SY5Y cells assessed as cell viability at 1 mM and measured after 24 hrs by resazurin dye based fluorescence assay relative to control. The following applies: read-out: Activity.
For a further data set, the target named is Histamine H4 receptor (Homo sapiens, UniProt Q9H3N8). In words: Displacement of [3H] histamine from human H4 histamine receptor.
Data set [12] has as its target T1, Amine oxidase [flavin-containing] A. In words: Inhibition of human recombinant MAO-A using kynuramine as substrate preincubated for 30 mins followed by substrate addition by discontinuous fluorimetric analysis.
The species named for data set [13] is Homo sapiens. Nature of the data set: Selectivity index, ratio of IC50 for human recombinant MAO-A using kynuramine as substrate preincubated for 30 mins followed by substrate addition to IC50 for human recombinant MAO-B using kynuramine as substrate preincubated for 30 mins followed by substrate addition.
The next data set addresses D(2) dopamine receptor (Homo sapiens, UniProt P14416). In words: Displacement of [3H] spiperone from human D2 dopamine receptor.
In a further data set the target is Histamine H1 receptor (Homo sapiens, UniProt P35367). In words: Displacement of [3H] pyrilamine from human H1 histamine receptor.
In data set [14] the target is T2, Amine oxidase [flavin-containing] B. In words: Irreversible inhibition of human recombinant MAO-B assessed as reduction in enzyme activity at 10 times IC50 using kynuramine as substrate preincubated with compound followed by substrate addition by discontinuous fluorimetric analysis. Particulars: TDE = time-dependent effect.
For data set [15] the target is unchanged. In words: Inhibition of human recombinant MAO-B using kynuramine as substrate preincubated for 30 mins followed by substrate addition by discontinuous fluorimetric analysis.
Another data set has as its target D(3) dopamine receptor (Homo sapiens, UniProt P35462). Nature of the data set: Displacement of [3H] spiperone from human D3 dopamine receptor.
For data set [16], the target named is T3, Amine oxidase [flavin-containing] B (Rattus norvegicus, UniProt P19643).
T3 sequence (P19643 whole entry): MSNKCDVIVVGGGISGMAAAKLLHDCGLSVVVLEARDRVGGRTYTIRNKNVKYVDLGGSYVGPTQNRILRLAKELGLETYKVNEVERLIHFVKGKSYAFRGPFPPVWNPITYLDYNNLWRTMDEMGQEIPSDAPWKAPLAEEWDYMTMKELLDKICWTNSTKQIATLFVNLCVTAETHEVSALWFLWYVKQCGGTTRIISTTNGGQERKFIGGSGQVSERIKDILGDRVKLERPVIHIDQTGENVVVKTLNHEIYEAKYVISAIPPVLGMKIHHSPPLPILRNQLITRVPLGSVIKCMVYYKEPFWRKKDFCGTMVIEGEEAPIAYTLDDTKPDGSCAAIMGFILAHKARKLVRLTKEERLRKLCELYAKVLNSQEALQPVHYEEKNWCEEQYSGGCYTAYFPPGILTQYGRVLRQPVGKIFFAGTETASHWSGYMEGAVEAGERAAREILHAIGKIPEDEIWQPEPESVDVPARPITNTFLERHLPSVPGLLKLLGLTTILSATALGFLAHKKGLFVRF
In words: Inhibition of rat brain MAO-B using [14C]-phenylethylamine as substrate preincubated for 60 mins followed by substrate addition and measured after 20 mins by liquid scintillation counting method.

Histamine H3 receptor, sequence (Q9Y5N1 whole entry): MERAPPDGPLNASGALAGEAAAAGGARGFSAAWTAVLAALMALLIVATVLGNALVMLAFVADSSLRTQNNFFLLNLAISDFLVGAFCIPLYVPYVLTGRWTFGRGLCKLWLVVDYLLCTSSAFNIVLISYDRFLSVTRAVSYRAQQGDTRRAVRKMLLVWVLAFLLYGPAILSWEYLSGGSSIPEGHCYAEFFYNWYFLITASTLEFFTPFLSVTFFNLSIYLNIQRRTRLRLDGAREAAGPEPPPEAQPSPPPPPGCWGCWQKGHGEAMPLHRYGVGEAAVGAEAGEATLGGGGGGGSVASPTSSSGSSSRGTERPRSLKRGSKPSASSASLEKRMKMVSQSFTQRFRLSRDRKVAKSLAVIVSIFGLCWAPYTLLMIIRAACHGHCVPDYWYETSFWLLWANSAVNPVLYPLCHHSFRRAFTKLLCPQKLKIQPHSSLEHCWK
Acetylcholinesterase (Electrophorus electricus), sequence (O42275 24-633 limits assumed): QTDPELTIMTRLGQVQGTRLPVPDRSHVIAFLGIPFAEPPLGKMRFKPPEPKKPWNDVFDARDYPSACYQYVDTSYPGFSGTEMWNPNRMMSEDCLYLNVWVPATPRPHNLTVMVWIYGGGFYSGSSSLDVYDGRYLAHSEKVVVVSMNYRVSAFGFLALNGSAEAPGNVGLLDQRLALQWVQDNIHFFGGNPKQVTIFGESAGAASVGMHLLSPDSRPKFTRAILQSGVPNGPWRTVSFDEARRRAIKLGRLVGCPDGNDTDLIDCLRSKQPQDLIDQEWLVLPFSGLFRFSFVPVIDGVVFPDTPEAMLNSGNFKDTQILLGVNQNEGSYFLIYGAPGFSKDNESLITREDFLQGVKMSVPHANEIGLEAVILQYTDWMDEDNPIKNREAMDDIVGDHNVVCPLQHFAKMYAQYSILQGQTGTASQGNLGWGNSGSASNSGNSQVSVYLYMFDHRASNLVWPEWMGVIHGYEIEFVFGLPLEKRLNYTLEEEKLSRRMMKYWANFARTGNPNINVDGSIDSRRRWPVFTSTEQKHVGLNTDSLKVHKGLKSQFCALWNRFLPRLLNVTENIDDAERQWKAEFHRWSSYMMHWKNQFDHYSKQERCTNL
Cholinesterase (Equus caballus), sequence (P81908 whole entry): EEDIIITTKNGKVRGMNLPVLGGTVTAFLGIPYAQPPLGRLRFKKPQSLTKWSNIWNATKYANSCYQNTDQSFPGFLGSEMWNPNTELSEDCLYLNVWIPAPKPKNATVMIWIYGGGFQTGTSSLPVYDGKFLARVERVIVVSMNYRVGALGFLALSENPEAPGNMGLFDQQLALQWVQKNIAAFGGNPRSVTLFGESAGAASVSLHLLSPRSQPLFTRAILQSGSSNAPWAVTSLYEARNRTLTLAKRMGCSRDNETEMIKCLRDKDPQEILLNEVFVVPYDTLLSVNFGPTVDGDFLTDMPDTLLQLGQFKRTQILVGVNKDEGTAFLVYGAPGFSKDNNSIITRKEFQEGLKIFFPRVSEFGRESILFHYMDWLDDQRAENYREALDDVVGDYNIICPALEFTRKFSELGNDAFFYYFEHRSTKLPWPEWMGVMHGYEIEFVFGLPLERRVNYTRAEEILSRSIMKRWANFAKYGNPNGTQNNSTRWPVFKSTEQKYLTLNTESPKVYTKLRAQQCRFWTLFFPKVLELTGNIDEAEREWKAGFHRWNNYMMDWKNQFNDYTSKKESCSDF
Histamine H4 receptor, sequence (Q9H3N8 whole entry): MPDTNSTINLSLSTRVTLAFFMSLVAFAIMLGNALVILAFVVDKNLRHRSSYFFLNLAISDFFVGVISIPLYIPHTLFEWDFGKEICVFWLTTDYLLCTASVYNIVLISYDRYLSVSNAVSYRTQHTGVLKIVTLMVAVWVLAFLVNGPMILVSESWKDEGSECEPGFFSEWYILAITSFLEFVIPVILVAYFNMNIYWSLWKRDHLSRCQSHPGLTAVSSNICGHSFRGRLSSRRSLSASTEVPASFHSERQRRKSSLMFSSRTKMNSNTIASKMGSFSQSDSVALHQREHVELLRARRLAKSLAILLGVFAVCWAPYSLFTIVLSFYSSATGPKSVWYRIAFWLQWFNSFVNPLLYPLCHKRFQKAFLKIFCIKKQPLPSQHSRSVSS
D(2) dopamine receptor, sequence (P14416 whole entry): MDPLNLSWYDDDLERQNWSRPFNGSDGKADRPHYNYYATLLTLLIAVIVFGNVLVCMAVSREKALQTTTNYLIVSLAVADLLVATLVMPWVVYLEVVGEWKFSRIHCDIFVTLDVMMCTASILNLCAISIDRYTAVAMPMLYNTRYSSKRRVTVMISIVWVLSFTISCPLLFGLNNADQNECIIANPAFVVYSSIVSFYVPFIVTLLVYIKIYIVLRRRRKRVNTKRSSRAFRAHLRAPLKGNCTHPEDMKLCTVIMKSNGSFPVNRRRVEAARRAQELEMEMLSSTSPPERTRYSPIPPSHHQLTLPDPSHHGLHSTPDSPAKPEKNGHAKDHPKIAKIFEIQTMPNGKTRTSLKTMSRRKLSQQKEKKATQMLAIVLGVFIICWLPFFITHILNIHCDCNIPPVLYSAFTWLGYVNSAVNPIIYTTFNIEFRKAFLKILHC
D(3) dopamine receptor, sequence (P35462 whole entry): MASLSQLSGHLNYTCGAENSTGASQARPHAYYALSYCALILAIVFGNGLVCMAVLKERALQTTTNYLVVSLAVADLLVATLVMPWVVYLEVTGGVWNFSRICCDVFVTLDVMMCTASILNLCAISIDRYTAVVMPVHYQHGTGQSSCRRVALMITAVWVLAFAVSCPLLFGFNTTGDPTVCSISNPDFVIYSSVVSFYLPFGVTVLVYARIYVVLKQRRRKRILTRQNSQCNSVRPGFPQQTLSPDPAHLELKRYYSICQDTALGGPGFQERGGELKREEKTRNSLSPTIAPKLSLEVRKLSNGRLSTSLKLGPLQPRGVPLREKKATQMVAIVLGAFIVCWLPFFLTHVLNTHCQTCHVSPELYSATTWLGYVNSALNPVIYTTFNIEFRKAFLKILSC
Histamine H1 receptor, sequence (P35367 whole entry): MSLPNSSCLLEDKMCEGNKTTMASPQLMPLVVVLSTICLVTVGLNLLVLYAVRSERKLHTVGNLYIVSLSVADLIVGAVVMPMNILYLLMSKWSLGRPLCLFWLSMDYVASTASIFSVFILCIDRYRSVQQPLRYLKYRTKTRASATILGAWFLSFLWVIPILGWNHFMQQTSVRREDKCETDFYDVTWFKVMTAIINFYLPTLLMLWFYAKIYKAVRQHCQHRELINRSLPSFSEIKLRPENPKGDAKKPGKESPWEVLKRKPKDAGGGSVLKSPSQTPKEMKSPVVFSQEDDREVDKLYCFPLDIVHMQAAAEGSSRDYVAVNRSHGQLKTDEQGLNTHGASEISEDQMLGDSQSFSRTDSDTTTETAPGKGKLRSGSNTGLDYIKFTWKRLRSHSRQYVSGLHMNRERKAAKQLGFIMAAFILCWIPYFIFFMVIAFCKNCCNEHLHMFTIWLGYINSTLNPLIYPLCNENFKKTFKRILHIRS

A word on the inhibition: it is the change of the read-out against control, counted positive when it falls. Low values mean little suppression, high ones strong suppression. In general, IC50 refers to the concentration at which inhibition is half-maximal. Consider `C#CCNC1CCc2ccc(OCCCN3CCCCC3)cc21` (centres undefined), for which the inhibition in data set [1] and in data set [2] was 47% in each case. Further, the IC50 was over 50 µM in data set [3], 10.5 µM in data set [5], over 100 µM in data set [7] and 7.92 µM in [10]. Also, the Ratio IC50 in the data set listed under Homo sapiens [4] is over 13; in the data set filed under Homo sapiens [9], over 4.8. Moreover, the viability at 24 h, 10 µM in data set [6] was 100%. Also, the viability at 24 h, 1 µM in data set [8] was 84%. Moreover, the results for the Ki at Histamine H3 receptor (read-out: Ki) and at Histamine H3 receptor (read-out: pKi (converted)) were 0.0067 µM and under 0.01 µM, respectively.

With `C[n+]1ccc(-c2ccccc2)cc1`, the viability at 24 h, 1000 µM in data set [11] is 1.8%.

For `C#CCNC1CCc2cc(OCCCN3CCCCC3)ccc21` (centres undefined), the Ki at Histamine H4 receptor is over 100 µM; at D(2) dopamine receptor, over 10 µM; on Histamine H1 receptor, over 10 µM; at Histamine H3 receptor (read-out: Ki), 0.0026 µM; on Histamine H3 receptor (read-out: pKi (converted)) it was under 0.01 µM; on D(3) dopamine receptor, over 10 µM. The IC50 in data set [12] is over 100 µM; in [3] it was over 10 µM; in data set [5], 0.256 µM; in data set [15], 1.05 µM; in [7], over 100 µM; in data set [10] it was 0.991 µM. In addition, the Ratio IC50 in the data set filed under Homo sapiens [13] was over 95; in the data set filed under Homo sapiens [4], over 100; in the data set filed under Homo sapiens [9], over 39. Also, the inhibition turned out to be 32% in data set [1] and 57% in [2]. For the same compound, the “inhibition (INH)” value in data set [14] was “Tde”. Further, the viability at 24 h, 10 µM in [6] was determined as 95.6%. Also, in data set [8], the viability at 24 h, 1 µM came out at 89.7%.

Take `C#CCN[C@@H]1CCc2ccc(OC(=O)N(C)CC)cc21` [LADOSTIGIL]: the IC50 in data set [16] is over 1000 µM.
